Structures can show the parent of a compound that is named as a salt. One block for each molecule: values may come before it.
Legend:
[1] = biological target: T1, human mitochondrial NAD(P)+-dependent malic enzyme (m-NAD(P)-ME, ME2) (Homo sapiens, UniProt P23368); assay: enzyme activation assay ([…] nm), purified enzyme; allosteric-site mutant controls; conditions: read-out: ^3 ^, ^4m-NAD(P)-ME WT
[2] = biological target: T1, human mitochondrial NAD(P)+-dependent malic enzyme (m-NAD(P)-ME, ME2); assay: spectrophotometric NADH assay at […] nm; fumarate competition/rescue; allosteric-site mutant controls; type: biochemical

T1 sequence (P23368 19-584): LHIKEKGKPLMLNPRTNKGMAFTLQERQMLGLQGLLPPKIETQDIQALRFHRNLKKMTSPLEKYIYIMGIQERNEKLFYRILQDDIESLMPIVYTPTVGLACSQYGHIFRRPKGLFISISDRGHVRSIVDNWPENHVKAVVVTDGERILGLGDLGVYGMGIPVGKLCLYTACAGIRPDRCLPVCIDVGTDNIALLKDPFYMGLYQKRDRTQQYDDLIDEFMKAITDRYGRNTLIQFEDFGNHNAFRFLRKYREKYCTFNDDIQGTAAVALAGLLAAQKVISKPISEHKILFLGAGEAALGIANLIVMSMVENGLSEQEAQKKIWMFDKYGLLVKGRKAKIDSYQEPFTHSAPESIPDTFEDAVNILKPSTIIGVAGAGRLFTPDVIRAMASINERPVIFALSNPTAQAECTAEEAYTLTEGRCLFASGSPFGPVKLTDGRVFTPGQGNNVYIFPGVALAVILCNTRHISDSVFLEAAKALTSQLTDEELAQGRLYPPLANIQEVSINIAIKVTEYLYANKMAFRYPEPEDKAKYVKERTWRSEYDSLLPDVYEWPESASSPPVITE

fold induction at 10000 µM [1]: 1.83 ± 0.04
SMILES: CCOC(=O)/C=C/C(=O)O [Monoethyl fumarate]

IC50 [2]: ~2.5 mM
SMILES: CCOC(=O)/C=C(\O)C(=O)OCC [diethyl oxalacetate]

fold induction at 5000 µM [1]: 2.78 ± 0.08
SMILES: COC(=O)/C=C/C(=O)O [Monomethyl fumarate]

fold induction at 20000 µM [1]: 1.75 ± 0.16
SMILES: C/C(=C\C(=O)O)C(=O)O [Mesaconate]
